{"source": "patent US12427134B2", "about": "“Methods of reducing the risk of cardiovascular events in a subject with atrial fibrillation and/or atrial flutter” (priority 2019, dated 2025)", "system": "hypertriglyceridemic patients with cardiovascular disease or at high risk for cardiovascular disease", "assay": "REDUCE-IT: time to first occurrence of adjudicated cardiovascular endpoint events (primary, key secondary, other secondary, tertiary; sensitivity and landmark analyses)", "assay_type": "in vivo", "description": "The following study, also referred to as the REDUCE-IT clinical trial, was a large cardiovascular (CV) outcome trial designed to assess CV risk reduction benefit of AMR101 treatment (commercially known as VASCEPA®) versus placebo on the 5-point primary composite endpoint: CV death, non-fatal stroke, non-fatal myocardial infarction (MI), coronary revascularizations, or unstable angina requiring hospitalization.\nA multi-center, prospective, randomized, double-blind, placebo-controlled, parallel-group study was performed to evaluate the effect of AMR101 (4 g per day) on cardiovascular health and mortality in hypertriglyceridemic patients with cardiovascular disease or at high risk for cardiovascular disease. The intended expanded indication of the study was treatment with AMR101 as an add-on to statin therapy to reduce the risk of cardiovascular events in patients with clinical cardiovascular disease or with multiple risk factors for cardiovascular disease.\nThe primary objective of this study was, in patients at LDL-C goal while on statin therapy, with established cardiovascular disease (CVD) or at high risk for CVD, and hypertriglyceridemia (e.g., fasting triglycerides (TG) ≥200 mg/dL and <500 mg/dL), to evaluate the effect of AMR101 4 g daily on time from randomization to first occurrence of any component of the composite of the following major CV events: CV death; nonfatal MI; (including silent MI; electrocardiograms (ECGs) were performed annually for the detection of silent MIs); nonfatal stroke; coronary revascularization; and unstable angina determined to be caused by myocardial ischemia by invasive/non-invasive testing and requiring emergent hospitalization.\nThe key secondary objective of this study was to evaluate the effect of AMR101 4 g daily on the time from randomization to the first occurrence of the composite of following major CV events: CV death, nonfatal MI (including silent MI), and nonfatal stroke.\nOther secondary objectives for this study were to evaluate the effect of therapy on time from randomization to the first occurrence of the following individual or composite endpoints: composite of CV death or nonfatal MI (including silent MI); fatal or nonfatal MI (including silent MI); non-elective coronary revascularization represented as the composite of emergent or urgent classifications; CV death; unstable angina determined to be caused by myocardial ischemia by invasive/non-invasive testing and requiring emergent hospitalization; fatal or nonfatal stroke; composite of total mortality, nonfatal MI (including silent MI), or nonfatal stroke; and total mortality.\nThe key tertiary objectives for this study were to evaluate the effect of AMR101 4 g daily from baseline and percent change from baseline in fasting triglycerides and LDL-C. […]", "key": {"[1]": {"conditions": "ITT population, listed as Icosapent Ethyl"}, "[2]": {"conditions": "clinically adjudicated arrhythmia sequelae, safety population"}, "[3]": {"conditions": "clinically adjudicated arrhythmia sequelae, safety population, vs placebo"}, "[4]": {"conditions": "determined programmatically, ITT"}, "[5]": {"conditions": "excludes patients with Type 1 or Type 2 diabetes at baseline, ITT"}, "[6]": {"conditions": "tertiary endpoint, first occurrence, ITT"}, "[7]": {"conditions": "vs placebo, listed as Icosapent Ethyl"}, "[8]": {"conditions": "vs placebo, listed as icosapent ethyl"}}}
{"smiles": "CC/C=C\\C/C=C\\C/C=C\\C/C=C\\C/C=C\\CCCC(=O)OCC", "note": "[AMR101, eicosapentaenoic acid ethyl ester]", "values": [{"measurement": "New Heart Failure (newly emergent CHF), HR (95% CI)", "setting": "[1]", "result": "0.95 (0.77, 1.17)"}, {"measurement": "New Heart Failure (newly emergent CHF), patients with event", "setting": "[1]", "result": "(4.1%)"}, {"measurement": "New Heart Failure Requiring Hospitalization, HR (95% CI)", "setting": "[1]", "result": "0.97 (0.77, 1.22)"}, {"measurement": "New Heart Failure Requiring Hospitalization, patients with event", "setting": "[1]", "result": "(3.4%)"}, {"measurement": "New Onset Hypertension, HR (95% CI)", "setting": "[1]", "result": "0.86 (0.41-1.80)"}, {"measurement": "Peripheral Artery Disease, HR (95% CI)", "setting": "[1]", "result": "0.97 (0.78-1.21)"}, {"measurement": "Peripheral Artery Disease, patients with event", "setting": "[1]", "result": "(3.8) %"}, {"measurement": "Sudden Cardiac Death, HR (95% CI)", "setting": "[1]", "result": "0.69 (0.50, 0.96)"}, {"measurement": "Sudden Cardiac Death, patients with event", "setting": "[1]", "result": "(1.5%)"}, {"measurement": "Transient Ischemic Attack, patients with event", "setting": "[1]", "result": "(1.6%)"}, {"measurement": "Urgent Revascularization, HR (95% CI)", "setting": "[1]", "result": "0.66 (0.54, 0.79)"}, {"measurement": "Urgent Revascularization, patients with event", "setting": "[1]", "result": "(4.4%)"}, {"measurement": "Deaths with undetermined cause", "setting": "Safety population", "result": "36 (0.9) n (%)"}, {"measurement": "Non-CV deaths", "setting": "Safety population", "result": "100 (2.4) n (%)"}, {"measurement": "Total mortality", "setting": "Safety population, N = 4089", "result": "274 (6.7) n (%)"}, {"measurement": "Coronary Revascularization, events (%)", "setting": "clinically adjudicated arrhythmia sequelae, composite of emergent, urgent, elective, salvage, safety population", "result": "(9.2%)"}, {"measurement": "Any Myocardial Infarction, events (%)", "setting": "[2]", "result": "(6.1%)"}, {"measurement": "Any Stroke, events (%)", "setting": "[2]", "result": "(2.4%)"}, {"measurement": "Cardiac Arrest, events (%)", "setting": "[2]", "result": "(0.5%)"}, {"measurement": "Carotid Revascularization, events (%)", "setting": "[2]", "result": "(0.8%)"}, {"measurement": "Sudden Cardiac Death, events (%)", "setting": "[2]", "result": "(1.5%)"}, {"measurement": "Transient Ischemic Attack, events (%)", "setting": "[2]", "result": "(1.6%)"}, {"measurement": "Any Myocardial Infarction, HR (95% CI)", "setting": "[3]", "result": "0.69 (0.58 to 0.81)"}, {"measurement": "Any Stroke, HR (95% CI)", "setting": "[3]", "result": "0.72 (0.55 to 0.93)"}, {"measurement": "Cardiac Arrest, HR (95% CI)", "setting": "[3]", "result": "0.52 (0.31 to 0.86)"}, {"measurement": "Sudden Cardiac Death, HR (95% CI)", "setting": "[3]", "result": "0.69 (0.50 to 0.96)"}, {"measurement": "Transient Ischemic Attack, HR (95% CI)", "setting": "[3]", "result": "1.32 (0.91 to 1.92)"}, {"measurement": "Coronary Revascularization, HR (95% CI) Icosapent Ethyl/Placebo", "setting": "composite of emergent, urgent, elective, salvage, ITT", "result": "0.66 (0.58-0.76)"}, {"measurement": "Coronary Revascularization, patients with event (%)", "setting": "composite of emergent, urgent, elective, salvage, first occurrence, ITT", "result": "(9.2) %"}, {"measurement": "New Onset Hypertension, HR (95% CI) Icosapent Ethyl/Placebo", "setting": "[4]", "result": "0.86 (0.41-1.80)"}, {"measurement": "New Onset Hypertension, patients with event (%)", "setting": "[4]", "result": "(0.3) %"}, {"measurement": "New Onset Type 2 Diabetes, HR (95% CI) Icosapent Ethyl/Placebo", "setting": "[5]", "result": "1.04 (0.73-1.47)"}, {"measurement": "New Onset Type 2 Diabetes, patients with event (%)", "setting": "[5]", "result": "(3.8) %"}, {"measurement": "Primary endpoint, risk reduction", "setting": "post hoc analysis excluding patients with diarrhea", "result": 25, "unit": "%"}, {"measurement": "Cardiac Arrest, HR (95% CI) Icosapent Ethyl/Placebo", "setting": "tertiary endpoint, ITT", "result": "0.52 (0.31-0.86)"}, {"measurement": "Elective Revascularization, HR (95% CI) Icosapent Ethyl/Placebo", "setting": "tertiary endpoint, ITT", "result": "0.68 (0.57-0.82)"}, {"measurement": "Emergent Revascularization, HR (95% CI) Icosapent Ethyl/Placebo", "setting": "tertiary endpoint, ITT", "result": "0.62 (0.42-0.92)"}, {"measurement": "Ischemic Stroke, HR (95% CI) Icosapent Ethyl/Placebo", "setting": "tertiary endpoint, ITT", "result": "0.64 (0.49-0.85)"}, {"measurement": "Newly Emergent CHF Requiring Hospitalization, HR (95% CI) Icosapent Ethyl/Placebo", "setting": "tertiary endpoint, ITT", "result": "0.97 (0.77-1.22)"}, {"measurement": "Newly Emergent CHF, HR (95% CI) Icosapent Ethyl/Placebo", "setting": "tertiary endpoint, ITT", "result": "0.95 (0.77-1.17)"}, {"measurement": "Peripheral Artery Disease, HR (95% CI) Icosapent Ethyl/Placebo", "setting": "tertiary endpoint, ITT", "result": "0.97 (0.78-1.21)"}, {"measurement": "Salvage Revascularization, HR (95% CI) Icosapent Ethyl/Placebo", "setting": "tertiary endpoint, ITT", "result": "0.00 (0.00-0.00)"}, {"measurement": "Sudden Cardiac Death, HR (95% CI) Icosapent Ethyl/Placebo", "setting": "tertiary endpoint, ITT", "result": "0.69 (0.50-0.96)"}, {"measurement": "Transient Ischemic Attack, HR (95% CI) Icosapent Ethyl/Placebo", "setting": "tertiary endpoint, ITT", "result": "1.32 (0.91-1.92)"}, {"measurement": "Urgent Revascularization, HR (95% CI) Icosapent Ethyl/Placebo", "setting": "tertiary endpoint, ITT", "result": "0.66 (0.54-0.79)"}, {"measurement": "Amputation for PVD, patients with event (%)", "setting": "[6]", "result": "(0.5) %"}, {"measurement": "Cardiac Arrest, patients with event (%)", "setting": "[6]", "result": "(0.5) %"}, {"measurement": "Cardiac Arrhythmia Requiring Hospitalization of ≥24 Hours, patients with event (%)", "setting": "[6]", "result": "(4.6) %"}, {"measurement": "Carotid Revascularization, patients with event (%)", "setting": "[6]", "result": "(0.8) %"}, {"measurement": "Elective Revascularization, patients with event (%)", "setting": "[6]", "result": "(4.7) %"}, {"measurement": "Emergent Revascularization, patients with event (%)", "setting": "[6]", "result": "(1.0) %"}, {"measurement": "Hemorrhagic Stroke, patients with event (%)", "setting": "[6]", "result": "(0.3) %"}, {"measurement": "Ischemic Stroke, patients with event (%)", "setting": "[6]", "result": "(2.0) %"}, {"measurement": "Newly Emergent CHF Requiring Hospitalization, patients with event (%)", "setting": "[6]", "result": "(3.4) %"}, {"measurement": "Newly Emergent CHF, patients with event (%)", "setting": "[6]", "result": "(4.1) %"}, {"measurement": "Peripheral Artery Disease, patients with event (%)", "setting": "[6]", "result": "(3.8) %"}, {"measurement": "Salvage Revascularization, patients with event (%)", "setting": "[6]", "result": "(0.0) %"}, {"measurement": "Sudden Cardiac Death, patients with event (%)", "setting": "[6]", "result": "(1.5) %"}, {"measurement": "Transient Ischemic Attack, patients with event (%)", "setting": "[6]", "result": "(1.6) %"}, {"measurement": "Urgent Revascularization, patients with event (%)", "setting": "[6]", "result": "(4.4) %"}, {"measurement": "Total mortality utilizing known vital status data", "setting": "through 31 May 2018, assessed as of database lock", "result": 7.3, "unit": "%"}, {"measurement": "Key secondary composite endpoint, relative risk reduction", "setting": "vs placebo", "result": 26.5, "unit": "%"}, {"measurement": "Primary composite endpoint, relative risk reduction", "setting": "vs placebo", "result": 24.8, "unit": "%"}, {"measurement": "Key secondary composite endpoint, relative risk reduction", "setting": "[7]", "result": 26, "unit": "%"}, {"measurement": "Primary composite endpoint, relative risk reduction", "setting": "[7]", "result": 25, "unit": "%"}, {"measurement": "Key secondary composite endpoint, relative risk reduction", "setting": "[8]", "result": 26, "unit": "%"}, {"measurement": "Primary composite endpoint, relative risk reduction", "setting": "[8]", "result": 25, "unit": "%"}]}
